For data set [1], the target named is T1, Relaxin-3 receptor 1 (Homo sapiens, UniProt Q9NSD7).
T1 sequence (Q9NSD7 whole entry): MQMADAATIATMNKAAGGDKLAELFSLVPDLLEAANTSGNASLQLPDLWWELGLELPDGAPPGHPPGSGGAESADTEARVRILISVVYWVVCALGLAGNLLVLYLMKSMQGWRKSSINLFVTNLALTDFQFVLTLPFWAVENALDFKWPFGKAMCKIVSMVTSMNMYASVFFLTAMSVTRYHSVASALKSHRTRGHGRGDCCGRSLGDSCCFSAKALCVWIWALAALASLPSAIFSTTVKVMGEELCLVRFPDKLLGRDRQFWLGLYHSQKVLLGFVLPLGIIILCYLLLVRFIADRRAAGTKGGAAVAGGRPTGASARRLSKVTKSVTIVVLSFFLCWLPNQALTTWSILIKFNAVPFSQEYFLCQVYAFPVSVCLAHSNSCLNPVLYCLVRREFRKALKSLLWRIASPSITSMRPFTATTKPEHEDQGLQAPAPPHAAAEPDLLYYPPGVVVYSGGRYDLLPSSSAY
As to the kind of experiment: Agonist activity at human RXFP3 expressed in CHOK1 cells assessed as inhibition of forskolin-stimulated intracellular cAMP accumulation preincubated for 30 mins followed by forskolin-stimulation and measured after 30 mins by HTRF assay. Type of data set: functional, cell-based.

Data set [2] concerns the target T2, Relaxin-3 receptor 1 (Homo sapiens) (UniProt Q9NSD7).
T2 sequence (whole entry): T1 sequence (Q9NSD7 whole entry)
Put plainly: Agonist activity at human RXFP3 expressed in CHOK1 cells assessed as inhibition of forskolin-stimulated intracellular cAMP accumulation preincubated for 30 mins followed by forskolin-stimulation and measured after 30 mins by HTRF assay relative to relaxin-3. Type of data set: functional, cell-based.

Data set [3] has as its target T3, Relaxin-3 receptor 2 (Homo sapiens, UniProt Q8TDU9). As to the kind of experiment: Agonist activity at human RXFP4 expressed in CHOK1 cells assessed as inhibition of forskolin-stimulated intracellular cAMP accumulation preincubated for 30 mins followed by forskolin-stimulation and measured after 30 mins by HTRF assay. The class given is functional, cell-based.
The target of data set [4] is T3, Relaxin-3 receptor 2. Put plainly: Agonist activity at human RXFP4 expressed in CHOK1 cells assessed as inhibition of forskolin-stimulated intracellular cAMP accumulation preincubated for 30 mins followed by forskolin-stimulation and measured after 30 mins by HTRF assay relative to relaxin-3. Type of data set: functional, cell-based.
Data set [5] has as its target T3, Relaxin-3 receptor 2. As to the kind of experiment: Agonist activity at human RXFP4 expressed in CHOK1 cell membranes assessed as stimulation of [35S]-GTPgammaS binding after 3 hrs by scintillation counting method. The class given is functional.
In data set [6] the target is T2, Relaxin-3 receptor 1 (Homo sapiens). As to the kind of experiment: Agonist activity at human RXFP3 expressed in CHOK1 cells assessed as induction of ERK1/2 phosphorylation at 5 uM by Western blot analysis. Type of data set: cell-based.
For data set [7] the target is unchanged. As to the kind of experiment: Agonist activity at human RXFP3 expressed in CHOK1 cells assessed as induction of JNK phosphorylation at 5 uM by Western blot analysis. The class given is cell-based.
The target is the same in data set [8]. Put plainly: Agonist activity at human RXFP3 expressed in CHOK1 cells assessed as induction of p38 MAPK phosphorylation at 5 uM by Western blot analysis. The class given is cell-based.
Data set [9] deals with Rattus norvegicus. As to the kind of experiment: Induction of food intake in satiated Sprague-Dawley rat at 1 umol, icv after 0 to 2 hrs (reference value: 1.7 +/- 0.5g). Type of data set: functional.
Data set [10] relates to Rattus norvegicus. Put plainly: Induction of food intake in Sprague-Dawley rat at 1 umol, icv after 4 hrs (reference value: 2.5 +/- 0.6g). The class given is functional.
The test system of data set [11] is Rattus norvegicus. Put plainly: Induction of food intake in Sprague-Dawley rat at 1 umol, icv after 24 hrs (reference value: 24.1 +/- 2.7g). The class given is functional.
Data set [12] deals with Relaxin-3 receptor 1/2 (Homo sapiens) (UniProt Q9NSD7+Q8TDU9). Put plainly: Agonist activity at human RXFP3/4 in human U2OS cells assessed as induction of beta-arrestin recruitment incubated for 1 hr by chemiluminescence based PathHunter beta-arrestin assay relative to relaxin-3. Type of data set: cell-based.
For data set [13], the species on record is Cricetulus griseus. Put plainly: Induction of ERK1/2 phosphorylation CHOK1 cells at 5 uM by Western blot analysis.
The species entered for data set [14] is Cricetulus griseus. Put plainly: Induction of p38 MAPK phosphorylation CHOK1 cells at 5 uM by Western blot analysis.
For data set [15], the species on record is Cricetulus griseus. Put plainly: Induction of JNK phosphorylation CHOK1 cells at 5 uM by Western blot analysis.
In data set [16] the test system is CHO-K1. As to the kind of experiment: Effect on total ERK1/2 protein levels in CHOK1 cells at 5 uM by Western blot analysis. Type of data set: ADME, cell-based, Cricetulus griseus. The following applies: chinese hamster, cho-k1, 5 µM.
Data set [17] relates to CHO-K1. As to the kind of experiment: Effect on total JNK protein levels in CHOK1 cells at 5 uM by Western blot analysis. The following applies: chinese hamster, cho-k1, 5 µM. The class given is ADME, cell-based, Cricetulus griseus.
Data set [18] concerns CHO-K1. As to the kind of experiment: Effect on total p38 MAPK protein levels in CHOK1 cells at 5 uM by Western blot analysis. The class given is ADME, cell-based, Cricetulus griseus. The settings on record: chinese hamster, cho-k1, 5 µM.

The source made the active and inactive calls. No cut-off for these calls is given here.

T3 sequence (Q8TDU9 whole entry): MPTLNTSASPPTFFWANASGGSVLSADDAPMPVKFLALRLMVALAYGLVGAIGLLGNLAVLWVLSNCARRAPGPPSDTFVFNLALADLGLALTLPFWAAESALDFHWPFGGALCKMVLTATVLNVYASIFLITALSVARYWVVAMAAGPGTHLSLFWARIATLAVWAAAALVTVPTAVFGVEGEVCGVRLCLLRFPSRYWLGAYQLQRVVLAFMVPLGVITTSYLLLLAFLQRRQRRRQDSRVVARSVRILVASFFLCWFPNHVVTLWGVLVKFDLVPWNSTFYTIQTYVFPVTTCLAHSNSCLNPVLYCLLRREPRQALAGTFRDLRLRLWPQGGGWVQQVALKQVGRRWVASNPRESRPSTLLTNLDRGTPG
Chain of Relaxin-3 receptor 1/2 (Homo sapiens) (Q8TDU9 whole entry, looked up, one chain of several): as the sequence (Q8TDU9 whole entry) above

`Cc1cc(O)cc2c(/C=N/NC(=N)NCCc3ccc(Cl)c(Cl)c3)c[nH]c12`: the EC50 in data set [1] turned out to be 0.8 µM; in data set [3] it was 0.004 µM. For the same molecule, the Emax in [2] turned out to be 77.7%; in [4] it was 113%.
Consider `COc1cc(C)c2[nH]cc(/C=N/NC(=N)NCCc3ccc(Cl)c(Cl)c3)c2c1`, for which, in data set [3], the EC50 worked out at 0.058 µM. Also, in [4], the Emax was 99 to 99.2%.
With `COc1cc(C)c2[nH]cc(/C=N/NC(=N)NCCc3ccc(Cl)cc3)c2c1`, the EC50 in [1] came out at 1.3 µM; in data set [3] it was 0.1 µM. Further, the Emax in [2] worked out at 55.7%; in [4] it was 113%.
As to `CCc1cc(O)cc2c(/C=N/NC(=N)NCCc3ccc(Cl)cc3)c[nH]c12`, the Emax in [2] worked out at 105%; in data set [4], 100%; in data set [12], 79.2%. Besides, the EC50 in [3] came out at 0.002 µM; in data set [5] it was 0.011 µM. Further, the result in [6] and in data set [7] was Active. Moreover, the outcome in data set [8], in [13], in data set [14] and in data set [15] was inactive. Further, the Activity in [9] is 3.5 g; in [10], 7.1 g; in data set [11], 35.3 g; in [16], “Non-Toxic”; in data set [17] it was “Non-Toxic”; in [18], “Non-Toxic”.

The record behind these values is ChEMBL document CHEMBL4400563, “Discovery of a small molecule RXFP3/4 agonist that increases food intake in rats upon acute central administration” (Bioorg Med Chem Lett, 2019).
